Experimental data reported in patent publication EP0563386A1, “ANTICANCER COMPOSITION AND COMPOUND” (NIPPON SHINYAKU COMPANY, LIMITED, priority 1990, dated 1992).

Tests used:
[1] = tested on: MDCK cells; assay: Inhibition of uptake of 5-FU in MDCK cells (Test Example 4); format: cell-based; details: Canis lupus familiaris, 3H-5FU uptake versus control, harvest time (1, 3 or 5 hours) not given; for inhibition at 100 µM: 10⁻⁴ M; for inhibition at 10 µM: 10⁻⁵ M; for inhibition at 1 µM: 10⁻⁶ M
Description: In the assay of inhibitory activity against the 5-FU uptake of MDCK cells, the anticancer adjuvant activity of the test compound can be estimated based on the inhibitory effect on the uptake of a known anticancer drug.
The inhibitory effect of the compound of this invention on the uptake of 5-FU in MDCK cells was investigated. MDCK cells were seeded on a 24-well culture plate. When the cells became confluent, the test compound (10⁻⁶ - 10⁻⁴ M) and 3H-5FU ([…]) were simultaneously added to the medium and 1, 3 and 5 hours later, cells were harvested to determine the amount of 3H-5FU taken up with a liquid scintillation counter. The percent inhibition to control was calculated.

[2] = tested on: Colon 26 tumor cells; assay: Colon 26 percent tumor inhibition, alone and combined with 5-FU derivatives (Test Example 3); format: in vivo, BALB/c mice; details: for % Inhibition, Combination: test compound 10 mg/kg orally once daily concurrently with 5-FU derivatives (90 mg/kg total); for % Inhibition, Single drug: test compound 10 mg/kg orally once daily, 5-FU derivatives 30 mg/kg each (90 mg/kg total) orally
Description: The additive effect of 5-FU derivative and the compound of this invention was tested in terms of percent tumor inhibition. Colon 26 tumor cells were transplanted subcutaneously to groups of 8 BALB/c mice and the treatment was instituted when the tumor volume amounted to about 50-100 mm³. Each of the test com pound was suspended in 0.5% methylcellulose and admin istered orally in a dose of 10 mg/kg once daily for 14 days in (1) and for 21 days in (2) and (3). As 5-FU derivatives Mifurol™, Furtulon™ and Sunfural™ were used, and all the drugs were administered orally in a dose of 30mg/kg, or 90 mg/kg as total dose of three drugs. The combination group received these 5-FU derivatives concurrently with the test drug. The single drug group received each test compound alone orally.

[3] = tested on: Colon 26 tumor cells; assay: Colon 26 life-prolonging effect / survival (Test Example 5); format: in vivo, BALB/c mice; details: 10 mg/kg orally once daily; for life-prolonging effect: Test (2): groups of six, eighty percent of control group died on day 63, Fig. 4
Description: Furthermore, in the assay of growth inhibitory activity against Colon 26, the life-prolonging effect can be evaluated from the mortality of animals during a period of 4 to 6 weeks after administration.
• (1) Colon 26 tumor cells were transplanted subcutane ously in groups of six BALB/c mice and the treatment was instituted when the tumor volume amounted to about 100 - 200 mm³. The test drug suspended in 0.5% methyl cellulose was administered orally in a dose of 10 mg/kg once daily during the test period. All animals in the control group (no test drug was contained at all) died on day 34 and all animals given 5-FU derivative died on day 40, whereas none of the animals given the compound of this invention (compound No. 169) died even after day 40. The life-prolonging effect of the compound of this invention is clear. • (2) As in the above (1), Colon 26 tumor cells were transplanted subcutaneously in groups of six BALB/c mice and treatment was instituted when the tumor volume amounted to about 100-200 mm³. The test drug suspended in 0.5% methylcellulose was administered orally in a dose of 10 mg/kg once daily during the test period.
The open circle stands for control, the open square for the F-5U derivative group and the closed square for the group given the compound of this invention. The survival rate (%) is plotted on the vertical axis and the number of days after drug administration on the horizontal axis.
The open circle stands for the control group, the open square for Compound No. 175 group, the closed circle for Compound No. 210 group, the open triangle for Compound No. 213 group and the closed square for Compound 219 group. The survival rate (%) is plotted on the vertical axis and the number of days after drug administration on the horizontal axis.

[4] = Anticancer effect in unspecified in vitro test systems (Test Example 6); details: in vitro test systems which the inventor used, not described

**Q.** What does the source list for `O=C(Nc1nc(NC(=O)c2cccnc2)nc(-c2ccccc2)n1)c1cccnc1` [Compound No. 102, 2,4-Dinicotinoylamino-6-phenyl-1,3,5-triazine]?
**A.** inhibition at 100 µM [1]: 62%; inhibition at 10 µM [1]: 59%; inhibition at 1 µM [1]: 86%

**Q.** What does the source list for `Nc1nc(NC(=O)c2ccccc2)nc(-c2ccccc2)n1` [Compound No. 103, 2-Amino-4-benzoylamino-6-phenyl-1,3,5-triazine]?
**A.** inhibition at 100 µM [1]: 50%; inhibition at 10 µM [1]: 58%

**Q.** Which results are given for `O=C(Nc1nc(NC(=O)c2ccccc2)nc(-c2ccccc2)n1)c1ccccc1` [Compound No. 104, 2,4-Dibenzoylamino-6-phenyl-1,3,5-triazine]?
**A.** inhibition at 100 µM [1]: 44%; inhibition at 10 µM [1]: 50%; inhibition at 1 µM [1]: 60%

**Q.** With `Nc1nc(N)nc(-c2ccc(Cl)c(Cl)c2)n1` [Compound No. 156, 2,4-Diamino-6-(3,4-dichlorophenyl)-1,3,5-triazine] as the compound, how does the inhibition at 100 µM [1] read?
**A.** 56%

**Q.** And the inhibition at 10 µM [1]?
**A.** 73%

**Q.** What about the inhibition at 1 µM [1] of the same compound?
**A.** 85%

**Q.** For `Nc1nc(N)nc(-c2cccc(Cl)c2)n1` [Compound No. 159, 2,4-Diamino-6-(3-chlorophenyl)-1,3,5-triazine], which “% Inhibition, Combination” value ([2]; Test (1): 14 days) is on record?
**A.** 50.9%

**Q.** What about the “% Inhibition, Single drug” value ([2]; Test (1): 14 days) of the same compound?
**A.** 2.0%

**Q.** Which results are given for `Nc1nc(N)nc(-c2cc(Cl)ccc2Cl)n1` [Compound No. 169, 2,4-Diamino-6-(2,5-dichlorophenyl)-1,3,5-triazine]?
**A.** % Inhibition, Combination ([2]; Test (1): 14 days): 54.6%; % Inhibition, Single drug ([2]; Test (1): 14 days): 18.0%; % Inhibition, Combination ([2]; Test (2): 21 days): 84.1%; % Inhibition, Single drug ([2]; Test (2): 21 days): 11.6%; % Inhibition, Combination ([2]; Test (3): 21 days): 49.9%; % Inhibition, Single drug ([2]; Test (3): 21 days): 10.7%; survival: day on which the animals died ([3]; Test (1): groups of six, control group all died on day 34, Fig. 3): > 40 days

**Q.** With `Nc1nc(N)nc(-c2ccc(Cl)cc2Br)n1` [Compound No. 210, 2,4-Diamino-6-(2-bromo-4-chlorophenyl)-1,3,5-triazine] as the compound, how does the “% Inhibition, Combination” value ([2]; Test (2): 21 days) read?
**A.** 86.0%

**Q.** And the life-prolonging effect [3]?
**A.** definite life-prolonging effect

**Q.** Which results are given for `Nc1nc(N)nc(-c2cc(Br)ccc2Cl)n1` [Compound No. 213, 2,4-Diamino-6-(5-bromo-2-chlorophenyl)-1,3,5-triazine]?
**A.** % Inhibition, Combination ([2]; Test (2): 21 days): 70.4%; life-prolonging effect [3]: definite life-prolonging effect

**Q.** With `Nc1nc(N)nc(-c2ccc(Br)c(Cl)c2)n1` [Compound No. 219, 2,4-Diamino-6-(4-bromo-3-chlorophenyl)-1,3,5-triazine] as the compound, how does the “% Inhibition, Combination” value ([2]; Test (2): 21 days) read?
**A.** 75.5%

**Q.** And the “% Inhibition, Single drug” value ([2]; Test (2): 21 days)?
**A.** 10.0%

**Q.** What about the inhibition at 100 µM [1] of the same compound?
**A.** 60%

**Q.** What about the inhibition at 10 µM [1] of the same compound?
**A.** 69%

**Q.** What about the inhibition at 1 µM [1] of the same compound?
**A.** 86%

**Q.** And the life-prolonging effect [3]?
**A.** definite life-prolonging effect

**Q.** For `COCCOc1ccc(Cl)cc1-c1nc(N)nc(N)n1` [Compound No. 221, 2,4-Diamino-6-[5-chloro-2-(2-methoxyethoxy)phenyl]-1,3,5-triazine], which “% Inhibition, Combination” value ([2]; Test (3): 21 days) is on record?
**A.** 76.5%

**Q.** And the “% Inhibition, Single drug” value ([2]; Test (3): 21 days)?
**A.** 18.1%

**Q.** What does the source list for `COc1ccc(-c2nc(N)nc(N)n2)cc1OC` [Compound No. 259, 2,4-Diamino-6-(3,4-dimethoxyphenyl)-1,3,5-triazine]?
**A.** % Inhibition, Combination ([2]; Test (1): 14 days): 45.6%; % Inhibition, Single drug ([2]; Test (1): 14 days): 9.2%; inhibition at 100 µM [1]: 62%; inhibition at 10 µM [1]: 66%; inhibition at 1 µM [1]: 77%

**Q.** For `Nc1nc(NC(=O)c2cccnc2)nc(-c2cc(Cl)ccc2Cl)n1` [Compound No. 262, 2-Amino-4-nicotinoylamino-6-(2,5-dichlorophenyl)-1,3,5-triazine], which “% Inhibition, Combination” value ([2]; Test (3): 21 days) is on record?
**A.** 48.8%

**Q.** What about the “% Inhibition, Single drug” value ([2]; Test (3): 21 days) of the same compound?
**A.** 19.2%

**Q.** And the inhibition at 100 µM [1]?
**A.** 46%

**Q.** And the inhibition at 10 µM [1]?
**A.** 58%

**Q.** Which results are given for `Nc1nc(NC(=O)c2cccnc2)nc(-c2ccc(Cl)c(Cl)c2)n1` [Compound No. 263, 2-Amino-4-nicotinoylamino-6-(3,4-dichlorophenyl)-1,3,5-triazine]?
**A.** % Inhibition, Combination ([2]; Test (1): 14 days): 47.9%; % Inhibition, Single drug ([2]; Test (1): 14 days): 7.0%; % Inhibition, Combination ([2]; Test (3): 21 days): 52.0%; % Inhibition, Single drug ([2]; Test (3): 21 days): 8.9%

**Q.** With `COc1ccc(-c2nc(N)nc(NC(=O)c3cccnc3)n2)cc1OC` [Compound No. 264, 2-Amino-4-nicotinoylamino-6-(3,4-dimethoxyphenyl)-1,3,5-triazine] as the compound, how does the inhibition at 100 µM [1] read?
**A.** 56%

**Q.** What about the inhibition at 10 µM [1] of the same compound?
**A.** 62%

**Q.** And the inhibition at 1 µM [1]?
**A.** 89%

**Q.** With `Nc1nc(N)nc(-c2ccc(OCc3ccccc3)cc2)n1` [Compound No. 345, 2,4-Diamino-6-(4-benzyloxyphenyl)-1,3,5-triazine] as the compound, how does the inhibition at 100 µM [1] read?
**A.** 70%

**Q.** And the inhibition at 10 µM [1]?
**A.** 63%

**Q.** What about the inhibition at 1 µM [1] of the same compound?
**A.** 63%

**Q.** With `CC(=O)c1cccc(-c2nc(N)nc(N)n2)c1` [Compound No. 347, 2,4-Diamino-6-(3-acetylphenyl)-1,3,5-triazine] as the compound, how does the inhibition at 100 µM [1] read?
**A.** 49%

**Q.** And the inhibition at 10 µM [1]?
**A.** 61%

**Q.** For `Nc1cccc(-c2nc(N)nc(N)n2)c1` [Compound No. 352, 2,4-Diamino-6-(3-aminophenyl)-1,3,5-triazine], which inhibition at 100 µM [1] is on record?
**A.** 64%

**Q.** What about the inhibition at 10 µM [1] of the same compound?
**A.** 69%

**Q.** Which results are given for `Nc1nc(N)nc(-c2ccccc2NCc2ccccc2)n1` [Compound No. 356, 2,4-Diamino-6-(2-benzylaminophenyl)-1,3,5-triazine]?
**A.** inhibition at 100 µM [1]: 51%; inhibition at 10 µM [1]: 73%; inhibition at 1 µM [1]: 91%

**Q.** Which inhibition at 100 µM [1] does the source give for `Nc1nc(N)nc(-c2ccc(Br)c(Br)c2)n1` [Compound No. 405, 2,4-Diamino-6-(3,4-dibromophenyl)-1,3,5-triazine] here?
**A.** 62%

**Q.** And the inhibition at 10 µM [1]?
**A.** 59%

**Q.** For `Nc1nc(N)nc(-c2ccccc2)n1` [compound 100, 2,4-Diamino-6-phenyl-1,3,5-triazine], which “anticancer effect in vitro” value [4] is on record?
**A.** strong anticancer effect

**Q.** With `CCONc1nc(N)nc(-c2cc(Cl)ccc2Cl)n1` [compound 183, 2-Amino-4-ethoxyamino-6-(2,5-dichlorophenyl)-1,3,5-triazine] as the compound, how does the “anticancer effect in vitro” value [4] read?
**A.** strong anticancer effect

**Q.** For `Nc1nc(N)nc(-c2cc(Br)ccc2F)n1` [compound 215, 2,4-Diamino-6-(5-bromo-2-fluorophenyl)-1,3,5-triazine], which “anticancer effect in vitro” value [4] is on record?
**A.** strong anticancer effect

**Q.** With `COc1ccccc1-c1nc(N)nc(N)n1` [compound 255, 2,4-Diamino-6-(2-methoxyphenyl)-1,3,5-triazine] as the compound, how does the “anticancer effect in vitro” value [4] read?
**A.** strong anticancer effect

**Q.** With `Nc1nc(N)nc(-c2cc([N+](=O)[O-])ccc2Cl)n1` [compound 374, 2,4-Diamino-6-(2-chloro-5-nitrophenyl)-1,3,5-triazine] as the compound, how does the “anticancer effect in vitro” value [4] read?
**A.** strong anticancer effect

**Q.** Which “anticancer effect in vitro” value [4] does the source give for `Cc1ccc(Cl)cc1-c1nc(N)nc(N)n1` [compound 380, 2,4-Diamino-6-(5-chloro-2-methylphenyl)-1,3,5-triazine] here?
**A.** strong anticancer effect

**Q.** Which “anticancer effect in vitro” value [4] does the source give for `Nc1nc(N)[n+]([O-])c(-c2cc(Cl)ccc2Cl)n1` [compound 1001, 2,4-Diamino-6-(2,5-dichlorophenyl)-1,3,5-triazine N-oxide] here?
**A.** strong anticancer effect
